Laboratory results reported in ChEMBL document CHEMBL1201862, “PubChem BioAssay data set” (2004).
The source made the active and inactive calls.

Experiments:
[1] = target: Potassium voltage-gated channel subfamily KQT member 2 (Rattus norvegicus, UniProt O88943); assay: KCNQ2 potassium channel inhibitors, dose response, cell-based, automated electrophysiology, set II, rat KCNQ2 (AID 588637); type: functional
[2] = ARNT/TACC3 interaction disruptors, potency, confirmation, biochemical, AlphaScreen, cherry-picked samples (AID 651703); type: functional, Homo sapiens;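 also: His-tagged ARNT PAS-B domain paired with GST-TACC3 E629A dimer coactivator fragment; potency of inhibitors that break up the complex and lower AlphaScreen signal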
[3] = target: Hepatocyte nuclear factor 4-alpha (Homo sapiens, UniProt P41235); type: functional, cell-based;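 also: biochemical luminescence-based dose-response counterscreen measuring inhibition of HNF4 dimerization, run alongside a screen for blockers of ABHD5–perilipin-5 interaction; split luciferase complementation of HNF4 fusion proteins in cell lysate measuring dimerization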
Beta-lactamase [4] = target: Beta-lactamase (Salmonella choleraesuis (strain SC-B67), UniProt Q5J463)
[5] = target: UDP-galactopyranose mutase (Mycobacterium tuberculosis, UniProt P9WIQ1); assay: Inhibitors of Mycobacterium tuberculosis UDP-galactopyranose mutase (UGM) enzyme Measured in Biochemical System Using Plate Reader - 2105-02_Inhibitor_Dose_CherryPick_Activity. [Related pubchem assays (depositor defined):AID504439]
ORF 73 = target: T1, ORF 73 (Human herpesvirus 8, UniProt O40947); assay: inhibitors of C-LANA binding to LBS DNA, dose response, biochemical, fluorescence polarization, cherry-picked samples (AID 504725); parameters: species or system Human gammaherpesvirus 8;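 also: fluorescence polarization of a labeled DNA duplex reporting LANA DNA binding; potency is for inhibitors that block LANA binding to the DNA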
T1 sequence (O40947 whole entry): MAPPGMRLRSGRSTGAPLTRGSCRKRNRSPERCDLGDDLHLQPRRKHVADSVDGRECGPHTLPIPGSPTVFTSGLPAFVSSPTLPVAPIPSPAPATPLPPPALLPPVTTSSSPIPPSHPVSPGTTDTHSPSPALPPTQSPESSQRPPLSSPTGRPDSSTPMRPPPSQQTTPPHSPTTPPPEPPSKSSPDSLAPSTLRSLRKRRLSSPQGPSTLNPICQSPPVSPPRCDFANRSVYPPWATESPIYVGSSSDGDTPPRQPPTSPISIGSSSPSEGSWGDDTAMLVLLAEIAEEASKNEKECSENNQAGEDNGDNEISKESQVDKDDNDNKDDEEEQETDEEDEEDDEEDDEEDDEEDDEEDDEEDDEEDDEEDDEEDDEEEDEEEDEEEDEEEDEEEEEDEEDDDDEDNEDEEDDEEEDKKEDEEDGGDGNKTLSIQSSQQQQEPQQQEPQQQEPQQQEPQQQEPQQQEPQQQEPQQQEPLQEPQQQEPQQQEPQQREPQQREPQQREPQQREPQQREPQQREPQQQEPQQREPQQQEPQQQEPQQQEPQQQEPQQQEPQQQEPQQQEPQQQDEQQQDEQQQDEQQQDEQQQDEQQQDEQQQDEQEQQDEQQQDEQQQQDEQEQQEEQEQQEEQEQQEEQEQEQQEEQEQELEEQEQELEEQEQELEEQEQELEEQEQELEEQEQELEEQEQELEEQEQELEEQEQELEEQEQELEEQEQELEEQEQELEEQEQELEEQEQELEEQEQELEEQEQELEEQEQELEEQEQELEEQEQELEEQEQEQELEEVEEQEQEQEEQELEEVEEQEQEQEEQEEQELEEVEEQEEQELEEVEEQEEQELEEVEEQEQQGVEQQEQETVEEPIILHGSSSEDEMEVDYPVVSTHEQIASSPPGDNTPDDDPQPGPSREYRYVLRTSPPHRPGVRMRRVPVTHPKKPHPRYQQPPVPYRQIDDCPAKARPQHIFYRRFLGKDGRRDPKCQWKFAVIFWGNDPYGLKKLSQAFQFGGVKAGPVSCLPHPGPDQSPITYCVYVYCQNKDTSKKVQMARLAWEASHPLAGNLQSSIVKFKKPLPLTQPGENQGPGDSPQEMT

Beta-lactamase [6] = target: Beta-lactamase (Pseudomonas aeruginosa, UniProt Q79MP6);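 also: biochemical dose-response test of metallo-beta-lactamase enzyme inhibition, read out by epi-absorbance; purified recombinant IMP-1 metallo-beta-lactamase with nitrocefin as substrate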
Keap1/Nrf2 = Keap1/Nrf2 (Homo sapiens, UniProt Q14145); assay: Keap1-Nrf2 protein-protein interaction inhibitors, dose response, biochemical, fluorescence polarization, cherry-picked samples (AID 588683)
[7] = target: T2, Probable nicotinate-nucleotide adenylyltransferase (Staphylococcus aureus (strain N315), UniProt P65502); type: functional, Staphylococcus aureus subsp. aureus N315;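 as to IC50 Mean: confirmatory dose-response retesting of NadD inhibitor hits first found in an ultra-high-throughput screen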
[8] = target: NAD-dependent protein deacylase sirtuin-5, mitochondrial (Homo sapiens, UniProt Q9NXA8); assay: SIRT5 desuccinylase inhibitors, dose response, biochemical, fluorescence imaging, cherry-pick, set 5 (AID 720591);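 also: desuccinylation of succinyl peptide AMC substrate read as fluorescence after trypsin release; potency of inhibitors that lower fluorescence and may act on trypsin instead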
[9] = target: T2, Probable nicotinate-nucleotide adenylyltransferase; type: functional, Staphylococcus aureus subsp. aureus N315; settings: read-out: IC50_Mean
[10] = target: T3, Sentrin-specific protease 1 (Homo sapiens, UniProt Q9P0U3); assay: potency of human SENP1 inhibitors, dose response, biochemical, kinetic FRET (AID 651697); type: functional; settings: read-out: IC50_Mean
[11] = target: T3, Sentrin-specific protease 1; assay: Dose response confirmation of small molecule inhibitors of the catalytic domain of the SUMO protease, SENP1 in a FRET assay.; type: functional; settings: read-out: IC50_Mean
[12] = target: Dual specificity protein phosphatase 3 (Homo sapiens, UniProt P51452); assay: VHR phosphatase inhibition, dose response, selectivity assay for STEP inhibitor project, biochemical (AID 602374); type: functional; settings: read-out: IC50_Mean
[13] = target: Tyrosine-protein phosphatase non-receptor type 11 (Homo sapiens, UniProt Q06124); assay: SHP2 phosphatase inhibition, dose response, selectivity assay for STEP inhibitor project, biochemical (AID 602367); type: functional; settings: read-out: IC50_Mean
[14] = target: Tyrosine-protein phosphatase non-receptor type 5 (Homo sapiens, UniProt P54829); assay: STEP phosphatase inhibitors, confirmation, biochemical, fluorescence intensity, uHTS hits (AID 602372); type: functional; settings: read-out: IC50_Mean
[15] = target: T4, Carboxy-terminal domain RNA polymerase II polypeptide A small phosphatase 1 (Homo sapiens, UniProt Q9GZU7); assay: inhibitors of CTDSP1, concentration-response testing, biochemical assay, absorbance-based, actives from ultra-high-throughput screening (AID 540297); type: functional
T4 sequence (Q9GZU7 whole entry): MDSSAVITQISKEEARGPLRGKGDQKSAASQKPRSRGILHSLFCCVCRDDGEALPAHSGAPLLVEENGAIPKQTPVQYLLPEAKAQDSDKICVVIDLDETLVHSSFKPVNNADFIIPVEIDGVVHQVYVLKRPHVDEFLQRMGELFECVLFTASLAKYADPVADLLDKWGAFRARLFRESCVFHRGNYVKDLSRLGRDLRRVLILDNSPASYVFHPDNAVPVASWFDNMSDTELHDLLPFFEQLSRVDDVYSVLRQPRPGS

Streptococcus = assay: Group A Streptococcus viability loss, dose response, counter-screen for streptokinase expression inhibitor project, luminescence, BacTiterGlo (AID 1915); type: functional, organism-based;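 also: potency for reduction of bacterial viability or growth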
[16] = test system: Streptococcus sp. 'group A'; assay: growth inhibition of control SK(-) GAS strain, dose response, counter-screen for streptokinase expression inhibitor project, luminescence, kanamycin, BacTiterGlo, confirmation (AID 1900); type: functional, organism-based
Streptokinase A = target: T5, Streptokinase A (Streptococcus pyogenes serotype M1, UniProt P10520); assay: S. pyogenes streptokinase expression inhibitors, potency, dose response, plasminogen activation absorbance, OD405 (AID 1914); type: functional, Streptococcus pyogenes M1 GAS;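 also: secreted streptokinase activity via plasminogen activation per viability signal from cell pellet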
T5 sequence (P10520 whole entry): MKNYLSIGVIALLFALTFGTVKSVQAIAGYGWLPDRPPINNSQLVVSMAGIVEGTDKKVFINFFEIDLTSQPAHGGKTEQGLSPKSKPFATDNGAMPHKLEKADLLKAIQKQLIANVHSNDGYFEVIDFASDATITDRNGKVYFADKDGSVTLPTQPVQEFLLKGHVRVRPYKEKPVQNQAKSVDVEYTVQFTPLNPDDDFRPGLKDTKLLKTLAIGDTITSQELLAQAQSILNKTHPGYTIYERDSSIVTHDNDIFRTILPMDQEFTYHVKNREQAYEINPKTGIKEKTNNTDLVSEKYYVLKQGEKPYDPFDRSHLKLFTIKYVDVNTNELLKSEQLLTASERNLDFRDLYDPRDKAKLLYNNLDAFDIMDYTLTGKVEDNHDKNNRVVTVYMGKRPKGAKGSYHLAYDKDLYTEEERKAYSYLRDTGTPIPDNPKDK

[17] = target: Latent membrane protein 1 (Human herpesvirus 4 (strain B95-8), UniProt P03230); assay: TES1-eGFP NF-kB reporter inhibition versus Tet-On dsRED, dose response, selectivity assay for LMP1 NF-kB inhibitor project, imaging, HEK293T, dual-color eGFP/dsRED, cherry-picks (AID 588398); type: functional, cell-based
HEK293 = assay: inhibitors of LMP1-driven NF-kB reporter, dose response, cell-based, HEK293, luciferase, cherry-pick (AID 588343); type: functional; settings: Homo sapiens
[18] = inhibitors of intracellular T. cruzi replication, confirmation, NIH3T3 host cells, beta-gal luminescence (AID 2044); type: functional, cell-based;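 also: intracellular parasites grown in NIH/3T3 mouse fibroblasts as host cells; luminescent beta-galactosidase reporter signal from transgenic T. cruzi replicating inside host cells; inhibitors lower the luminescence signal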
[19] = cytotoxicity toward NIH3T3 fibroblasts, dose response, counter-screen, cell-based, ATP luminescence, mouse fibroblasts (AID 2010); type: functional;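 also: cells exposed to compound for about 90 hours before reading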
[20] = target: T6, Apoptotic protease-activating factor 1 (Homo sapiens, UniProt O14727); assay: SAR analysis of small molecule Activators of Apaf-1 in a Fluorescent assay.; type: functional; settings: read-out: EC50_Mean;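 also: caspase-3 cleavage of fluorogenic Rh110 DEVD substrate downstream of apoptosome activation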
T6 sequence (O14727 whole entry): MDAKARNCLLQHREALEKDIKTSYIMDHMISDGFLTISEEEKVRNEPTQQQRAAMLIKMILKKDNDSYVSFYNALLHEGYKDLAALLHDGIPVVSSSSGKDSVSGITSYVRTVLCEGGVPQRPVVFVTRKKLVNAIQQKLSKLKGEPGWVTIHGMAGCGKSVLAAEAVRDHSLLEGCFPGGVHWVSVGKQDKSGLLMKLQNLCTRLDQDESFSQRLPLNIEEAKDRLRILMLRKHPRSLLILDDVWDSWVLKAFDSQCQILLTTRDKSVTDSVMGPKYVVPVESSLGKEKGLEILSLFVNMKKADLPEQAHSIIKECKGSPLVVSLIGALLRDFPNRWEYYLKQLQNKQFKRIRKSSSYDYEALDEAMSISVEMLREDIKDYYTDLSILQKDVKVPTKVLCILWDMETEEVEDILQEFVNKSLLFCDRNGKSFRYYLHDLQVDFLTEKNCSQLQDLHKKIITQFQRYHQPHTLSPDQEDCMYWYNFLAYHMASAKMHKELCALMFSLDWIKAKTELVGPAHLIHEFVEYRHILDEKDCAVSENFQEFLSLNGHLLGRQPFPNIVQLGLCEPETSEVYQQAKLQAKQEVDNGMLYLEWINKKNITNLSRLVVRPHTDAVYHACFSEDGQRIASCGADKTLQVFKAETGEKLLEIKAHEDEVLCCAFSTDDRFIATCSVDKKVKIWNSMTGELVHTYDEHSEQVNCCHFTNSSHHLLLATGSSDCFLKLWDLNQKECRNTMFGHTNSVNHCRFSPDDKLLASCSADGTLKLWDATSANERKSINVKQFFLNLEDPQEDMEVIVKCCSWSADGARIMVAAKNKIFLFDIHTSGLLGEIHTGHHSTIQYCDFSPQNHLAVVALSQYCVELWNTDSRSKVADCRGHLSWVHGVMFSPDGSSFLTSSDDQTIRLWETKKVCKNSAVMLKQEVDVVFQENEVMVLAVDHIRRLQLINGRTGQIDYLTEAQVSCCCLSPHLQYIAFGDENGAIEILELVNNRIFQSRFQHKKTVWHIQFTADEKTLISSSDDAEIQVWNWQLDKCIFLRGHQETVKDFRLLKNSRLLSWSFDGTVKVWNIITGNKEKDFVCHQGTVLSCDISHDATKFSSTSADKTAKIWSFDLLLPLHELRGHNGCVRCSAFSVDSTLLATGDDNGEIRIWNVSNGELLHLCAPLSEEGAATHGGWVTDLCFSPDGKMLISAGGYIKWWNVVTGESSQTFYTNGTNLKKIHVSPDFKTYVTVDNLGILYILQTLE

[21] = target: High affinity nerve growth factor receptor (Homo sapiens, UniProt P04629); type: functional;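 also: NTRK1 tested as one member of a kinome-wide profiling panel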
[22] = target: Cell division cycle 7-related protein kinase (Homo sapiens, UniProt O00311); type: functional;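 also: value obtained from a kinome-wide kinase panel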
[23] = target: Glycogen synthase kinase-3 beta (Homo sapiens, UniProt P49841); type: functional;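 also: value comes from a broad kinome profiling panel, with GSK3B as the panel member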
[24] = target: Serine/threonine-protein kinase MRCK alpha (Homo sapiens, UniProt Q5VT25); type: functional
[25] = target: Glycogen synthase kinase-3 alpha (Homo sapiens, UniProt P49840); type: functional;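 also: GSK3A result taken from a broad kinome-wide kinase panel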
[26] = miR-122 activators in hepatoma reporter cells, dose response, cell-based, Huh7 psiCHECK-miR122, Renilla luciferase, cherry-picked (AID 651956); type: functional;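 also: huh7 hepatoma cells stably carrying a psiCHECK-2 miR-122 sensor plasmid; renilla luciferase signal reporting endogenous miR-122 activity after 48 h compound exposure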

T3 sequence (Q9P0U3 whole entry, the tested form may be a part): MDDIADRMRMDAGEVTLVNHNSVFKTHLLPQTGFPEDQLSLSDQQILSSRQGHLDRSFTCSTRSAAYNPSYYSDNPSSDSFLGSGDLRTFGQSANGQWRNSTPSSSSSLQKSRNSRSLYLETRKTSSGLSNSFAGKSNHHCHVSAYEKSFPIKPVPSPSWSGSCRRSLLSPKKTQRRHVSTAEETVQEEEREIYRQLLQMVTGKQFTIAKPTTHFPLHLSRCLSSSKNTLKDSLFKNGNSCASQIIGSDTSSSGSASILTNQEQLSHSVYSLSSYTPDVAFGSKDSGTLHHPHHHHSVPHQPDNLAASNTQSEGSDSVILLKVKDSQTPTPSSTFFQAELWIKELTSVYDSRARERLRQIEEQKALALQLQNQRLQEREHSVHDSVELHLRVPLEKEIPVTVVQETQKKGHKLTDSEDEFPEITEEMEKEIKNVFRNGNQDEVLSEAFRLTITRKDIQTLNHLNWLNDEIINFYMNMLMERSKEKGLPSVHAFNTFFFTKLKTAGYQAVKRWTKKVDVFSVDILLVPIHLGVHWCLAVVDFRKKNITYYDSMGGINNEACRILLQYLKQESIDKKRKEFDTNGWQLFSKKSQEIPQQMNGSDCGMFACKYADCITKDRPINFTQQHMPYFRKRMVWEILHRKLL
T2 sequence (P65502 whole entry): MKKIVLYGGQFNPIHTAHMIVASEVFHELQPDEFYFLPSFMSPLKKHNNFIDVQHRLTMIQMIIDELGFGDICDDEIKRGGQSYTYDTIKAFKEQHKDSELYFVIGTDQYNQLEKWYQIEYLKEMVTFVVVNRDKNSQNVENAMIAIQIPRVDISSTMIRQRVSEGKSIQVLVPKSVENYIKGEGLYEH
Tyrosine-protein phosphatase non-receptor type 11, sequence (Q06124 whole entry): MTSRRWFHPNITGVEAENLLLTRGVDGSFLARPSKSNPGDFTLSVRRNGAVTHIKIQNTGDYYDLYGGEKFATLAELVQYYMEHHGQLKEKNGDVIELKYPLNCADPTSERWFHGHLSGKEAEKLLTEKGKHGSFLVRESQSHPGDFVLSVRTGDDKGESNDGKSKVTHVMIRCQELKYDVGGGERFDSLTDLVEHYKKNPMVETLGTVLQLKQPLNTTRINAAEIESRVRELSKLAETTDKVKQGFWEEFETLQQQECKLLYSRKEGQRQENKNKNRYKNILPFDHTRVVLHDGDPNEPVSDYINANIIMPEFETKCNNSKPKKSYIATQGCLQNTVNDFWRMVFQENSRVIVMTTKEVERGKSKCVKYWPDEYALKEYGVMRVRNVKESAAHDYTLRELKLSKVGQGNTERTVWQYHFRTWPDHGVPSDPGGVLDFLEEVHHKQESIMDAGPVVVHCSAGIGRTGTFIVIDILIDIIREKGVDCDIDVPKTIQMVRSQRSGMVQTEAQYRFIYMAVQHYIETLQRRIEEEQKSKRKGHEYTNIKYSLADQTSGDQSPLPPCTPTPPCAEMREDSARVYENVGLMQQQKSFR
Hepatocyte nuclear factor 4-alpha, sequence (P41235 whole entry, the tested form may be a part): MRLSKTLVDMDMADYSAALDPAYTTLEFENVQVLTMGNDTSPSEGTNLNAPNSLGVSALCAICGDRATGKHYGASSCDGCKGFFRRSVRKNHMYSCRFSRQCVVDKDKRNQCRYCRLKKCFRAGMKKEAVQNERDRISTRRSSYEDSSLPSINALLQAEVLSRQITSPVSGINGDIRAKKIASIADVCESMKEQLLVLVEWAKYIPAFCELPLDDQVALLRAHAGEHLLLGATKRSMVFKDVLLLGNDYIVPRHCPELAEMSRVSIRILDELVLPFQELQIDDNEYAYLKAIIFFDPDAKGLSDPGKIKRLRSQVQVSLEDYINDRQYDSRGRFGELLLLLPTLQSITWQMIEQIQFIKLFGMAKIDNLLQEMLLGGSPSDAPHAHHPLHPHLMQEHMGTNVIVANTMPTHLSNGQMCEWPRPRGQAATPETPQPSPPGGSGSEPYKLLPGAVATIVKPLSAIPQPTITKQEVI
NAD-dependent protein deacylase sirtuin-5, mitochondrial, sequence (Q9NXA8 whole entry): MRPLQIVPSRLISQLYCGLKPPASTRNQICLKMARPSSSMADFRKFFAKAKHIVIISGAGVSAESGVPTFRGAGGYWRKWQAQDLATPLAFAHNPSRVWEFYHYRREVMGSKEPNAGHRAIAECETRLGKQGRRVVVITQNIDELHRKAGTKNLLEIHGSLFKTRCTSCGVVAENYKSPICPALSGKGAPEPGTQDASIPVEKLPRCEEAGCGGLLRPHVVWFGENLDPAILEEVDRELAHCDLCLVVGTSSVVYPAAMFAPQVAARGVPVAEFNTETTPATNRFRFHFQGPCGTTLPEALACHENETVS
UDP-galactopyranose mutase, sequence (P9WIQ1 whole entry): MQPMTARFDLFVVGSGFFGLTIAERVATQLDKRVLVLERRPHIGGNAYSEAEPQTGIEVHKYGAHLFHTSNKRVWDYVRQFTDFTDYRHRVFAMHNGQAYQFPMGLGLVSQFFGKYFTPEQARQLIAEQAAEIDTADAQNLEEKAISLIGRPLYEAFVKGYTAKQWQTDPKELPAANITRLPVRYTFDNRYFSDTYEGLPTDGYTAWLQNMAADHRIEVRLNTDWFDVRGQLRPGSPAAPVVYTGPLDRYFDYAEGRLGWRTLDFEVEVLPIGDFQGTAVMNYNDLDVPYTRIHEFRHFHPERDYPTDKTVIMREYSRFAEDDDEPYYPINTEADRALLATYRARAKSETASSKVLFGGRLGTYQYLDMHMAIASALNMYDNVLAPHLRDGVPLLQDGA
Serine/threonine-protein kinase MRCK alpha, sequence (Q5VT25 whole entry): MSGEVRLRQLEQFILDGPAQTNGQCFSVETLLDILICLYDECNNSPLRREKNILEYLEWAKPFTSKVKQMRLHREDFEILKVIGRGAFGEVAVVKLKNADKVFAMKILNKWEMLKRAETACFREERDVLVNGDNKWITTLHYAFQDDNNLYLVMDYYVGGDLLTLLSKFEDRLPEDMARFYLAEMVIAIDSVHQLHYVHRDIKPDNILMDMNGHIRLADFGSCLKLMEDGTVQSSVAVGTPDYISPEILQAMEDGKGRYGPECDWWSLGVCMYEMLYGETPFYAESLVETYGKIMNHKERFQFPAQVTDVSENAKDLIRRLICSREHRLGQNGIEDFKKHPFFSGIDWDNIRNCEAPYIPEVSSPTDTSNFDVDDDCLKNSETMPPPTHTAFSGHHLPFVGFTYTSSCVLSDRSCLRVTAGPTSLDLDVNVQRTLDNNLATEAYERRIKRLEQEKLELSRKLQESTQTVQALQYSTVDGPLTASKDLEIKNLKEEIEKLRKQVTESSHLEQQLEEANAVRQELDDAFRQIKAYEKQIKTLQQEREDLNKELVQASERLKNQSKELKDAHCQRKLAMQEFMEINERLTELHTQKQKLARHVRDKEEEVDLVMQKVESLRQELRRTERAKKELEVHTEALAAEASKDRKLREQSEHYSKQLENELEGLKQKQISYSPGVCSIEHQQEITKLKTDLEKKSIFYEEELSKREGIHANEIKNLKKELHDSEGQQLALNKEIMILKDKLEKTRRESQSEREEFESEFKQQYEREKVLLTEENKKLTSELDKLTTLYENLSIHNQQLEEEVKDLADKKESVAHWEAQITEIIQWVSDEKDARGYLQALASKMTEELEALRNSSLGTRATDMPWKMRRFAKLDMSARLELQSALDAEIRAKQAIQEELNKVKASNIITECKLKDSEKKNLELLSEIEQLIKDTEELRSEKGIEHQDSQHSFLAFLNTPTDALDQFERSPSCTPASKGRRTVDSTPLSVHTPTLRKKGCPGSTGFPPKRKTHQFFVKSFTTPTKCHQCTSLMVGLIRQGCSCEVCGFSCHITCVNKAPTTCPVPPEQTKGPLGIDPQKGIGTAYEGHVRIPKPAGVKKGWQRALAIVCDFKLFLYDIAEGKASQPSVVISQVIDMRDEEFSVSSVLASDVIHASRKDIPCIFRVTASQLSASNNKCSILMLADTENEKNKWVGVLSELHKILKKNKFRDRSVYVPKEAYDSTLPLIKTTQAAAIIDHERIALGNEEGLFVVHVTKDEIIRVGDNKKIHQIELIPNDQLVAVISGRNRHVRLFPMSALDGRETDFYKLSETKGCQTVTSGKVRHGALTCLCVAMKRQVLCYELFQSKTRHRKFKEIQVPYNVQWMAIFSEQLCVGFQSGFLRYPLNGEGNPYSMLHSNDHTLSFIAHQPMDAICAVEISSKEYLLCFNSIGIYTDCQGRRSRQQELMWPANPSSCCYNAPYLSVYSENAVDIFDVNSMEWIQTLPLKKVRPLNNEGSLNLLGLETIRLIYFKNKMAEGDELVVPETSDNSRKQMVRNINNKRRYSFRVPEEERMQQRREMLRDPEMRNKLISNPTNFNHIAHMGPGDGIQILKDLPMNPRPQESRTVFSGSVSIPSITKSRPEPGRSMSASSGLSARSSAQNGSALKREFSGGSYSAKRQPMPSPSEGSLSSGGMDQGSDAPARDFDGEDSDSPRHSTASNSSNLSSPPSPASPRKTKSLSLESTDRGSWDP
Latent membrane protein 1, sequence (P03230 whole entry): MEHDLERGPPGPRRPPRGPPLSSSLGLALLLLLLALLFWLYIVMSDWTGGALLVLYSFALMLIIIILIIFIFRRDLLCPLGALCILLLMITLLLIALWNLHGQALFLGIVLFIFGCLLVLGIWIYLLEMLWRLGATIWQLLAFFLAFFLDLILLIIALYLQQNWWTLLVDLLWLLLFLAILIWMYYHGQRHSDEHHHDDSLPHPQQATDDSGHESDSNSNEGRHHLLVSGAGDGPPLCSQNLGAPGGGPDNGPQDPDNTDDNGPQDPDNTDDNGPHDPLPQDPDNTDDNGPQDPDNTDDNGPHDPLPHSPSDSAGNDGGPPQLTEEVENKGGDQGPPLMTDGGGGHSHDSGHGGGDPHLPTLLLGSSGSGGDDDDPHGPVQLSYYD
Beta-lactamase (Pseudomonas aeruginosa, UniProt Q79MP6), sequence (Q79MP6 whole entry): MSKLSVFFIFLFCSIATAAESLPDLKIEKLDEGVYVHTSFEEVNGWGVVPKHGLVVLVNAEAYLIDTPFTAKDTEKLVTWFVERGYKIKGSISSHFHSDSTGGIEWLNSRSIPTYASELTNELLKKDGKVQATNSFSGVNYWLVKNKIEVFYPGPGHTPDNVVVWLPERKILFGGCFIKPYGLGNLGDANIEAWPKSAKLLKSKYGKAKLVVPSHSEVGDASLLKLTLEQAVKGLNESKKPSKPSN

Cc1csc2nc(CSc3ccc(Cl)cc3)cn12
IC50 [1]: 4.2 µM (active)

O=C1c2cccnc2C(=O)N1Cc1ccc(S(=O)(=O)NCc2ccco2)s1
AC50 [2]: 98.4 µM (active)

COc1cc(/C=C/C(=O)c2ccc(Cl)s2)cc(OC)c1O
IC50 [3]: 6.66 µM (active)

Cc1cccc(N2C(=O)c3cccc4c(N)ccc(c34)C2=O)c1
IC50 (Beta-lactamase [4]): 10.1 µM (inactive)
AC50 [5]: 1.79 µM (active)
AC50 (ORF 73): 5.93 µM (active)
IC50 (Beta-lactamase [6]): 21.4 µM (inactive)
AC50 (Keap1/Nrf2): 1.82 µM (active)

CCOC(=O)c1ccccc1NC(=O)c1ccc2c(SCC(=O)O)c3c(nc2c1)CCCC3
IC50 [7]: 5.7 µM (active)
AC50 [8]: > 30 µM (inactive)
IC50 [9]: 25 µM (active)

O=C1CC[C@@H]2C[C@@]3(C[C@@H]4CCN1[C@H]24)Nc1cc([N+](=O)[O-])ccc1N=C3NCc1ccccc1
IC50 [10]: 18.3 µM (active)
IC50 [11]: 9.31 µM (active)

Cc1c(CC(=O)O)c(=O)oc2c(C)c(OCc3ccccc3Br)ccc12
IC50 [12]: 6.67 µM (active)
IC50 [13]: 7.43 µM (active)
IC50 [14]: 13.4 µM (active)
IC50 [15]: 3.92 µM (active)

CCCc1ccc(-c2cc(C(=O)N/N=C/c3ccc([N+](=O)[O-])o3)c3ccccc3n2)cc1
EC50 (Streptococcus): 2.59 µM (active)
EC50 [16]: 2.75 µM (active)
EC50 (Streptokinase A): > 150 µM (not active)
AC50 [17]: 112 µM (active)
AC50 (HEK293): 2.89 µM (active)
EC50 [18]: 0.194 µM (active)
EC50 [19]: 8.91 µM (active)

COC(=O)[C@@H]1COC(c2ccc(OC)c(C(F)(F)F)c2)=N1
EC50 [20]: > 100 µM (inactive)

NC(=O)c1ccc(-c2c[nH]c3nc(N)nc(NCc4c(F)cccc4F)c23)cc1
Ki [21]: 2.51 µM (active)
Ki [22]: 0.1 µM (active)

CC(=O)Nc1nonc1-n1nnc(C(=O)NN=Cc2cccs2)c1-c1ccccc1
Ki [23]: 6.31 µM (active)
Ki [24]: 10 µM (active)
Ki [25]: 3.16 µM (active)

CN1C(=O)c2cc(NC(=O)c3cccs3)ccc2OC[C@H]2O[C@H](CC(=O)NCCN3CCCCC3)CC[C@@H]21
AC50 [26]: 43.3 µM (active)
